# US20210293825A1, “METHODS FOR PRECISION THERAPEUTIC TARGETING OF HUMAN CANCER CELL MOTILITY AND KITS THEREOF” (UNITED STATES GOVERNMENT AS REPRESENTED BY THE DEPARTMENT …, priority 2018, published 2021)
# Legend:
# NCI 60 cell line panel = NCI 60 cell line panel screening; assay type: cell-based; conditions: initial screening per DTP protocol
# Excerpt: KBU2046 was submitted to the Developmental Therapeutics Program (DTP) of the US National Cancer Institute (NCI), underwent initial screening across the NCI 60 cell line panel per DTP protocol (Shoemaker, R. H., Nat Rev Cancer 6, 813-23 (2006)) and the resultant COMPARE diagram is depicted herein.
# [1] = target: T1, RAF1 with HSP90β and CDC37 (Homo sapiens, UniProt P08238+Q16543); experiment: HSP90β/CDC37 heterocomplex in vitro kinase assay with RAF1; assay type: biochemical; conditions: purified recombinant RAF1, HSP90β and CDC37
# T1 construct: host or cells: E. coli for HSP90β and CDC37
# T1 sequence (P08238 whole entry): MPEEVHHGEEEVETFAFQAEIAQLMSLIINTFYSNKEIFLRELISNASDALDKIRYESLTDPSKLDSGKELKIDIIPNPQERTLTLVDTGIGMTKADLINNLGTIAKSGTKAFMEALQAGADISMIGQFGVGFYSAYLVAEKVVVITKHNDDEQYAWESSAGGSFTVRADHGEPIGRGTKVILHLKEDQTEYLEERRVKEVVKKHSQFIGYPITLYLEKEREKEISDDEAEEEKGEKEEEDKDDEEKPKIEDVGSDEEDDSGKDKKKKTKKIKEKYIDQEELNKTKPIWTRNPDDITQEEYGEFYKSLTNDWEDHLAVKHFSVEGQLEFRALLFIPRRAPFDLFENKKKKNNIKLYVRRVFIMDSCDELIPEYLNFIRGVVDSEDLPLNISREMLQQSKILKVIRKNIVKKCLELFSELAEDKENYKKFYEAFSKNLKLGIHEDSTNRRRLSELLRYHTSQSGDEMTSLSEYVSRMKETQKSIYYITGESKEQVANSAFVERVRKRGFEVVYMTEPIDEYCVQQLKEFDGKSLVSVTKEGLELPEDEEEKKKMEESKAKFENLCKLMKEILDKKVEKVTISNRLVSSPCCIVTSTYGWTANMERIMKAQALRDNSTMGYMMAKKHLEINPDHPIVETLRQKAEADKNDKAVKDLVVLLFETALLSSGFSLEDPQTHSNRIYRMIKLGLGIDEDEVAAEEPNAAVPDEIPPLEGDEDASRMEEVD
# T1 sequence (Q16543 whole entry): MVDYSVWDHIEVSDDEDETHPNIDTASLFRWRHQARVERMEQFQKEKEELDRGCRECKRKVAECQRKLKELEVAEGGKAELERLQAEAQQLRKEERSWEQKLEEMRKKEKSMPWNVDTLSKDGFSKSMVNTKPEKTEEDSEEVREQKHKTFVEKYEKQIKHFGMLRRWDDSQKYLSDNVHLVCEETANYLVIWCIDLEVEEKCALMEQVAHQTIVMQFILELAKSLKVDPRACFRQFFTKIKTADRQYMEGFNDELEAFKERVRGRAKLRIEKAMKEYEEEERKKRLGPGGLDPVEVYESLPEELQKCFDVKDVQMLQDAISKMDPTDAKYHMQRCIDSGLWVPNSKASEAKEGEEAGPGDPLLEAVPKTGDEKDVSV
# Experimental: HEK293T cells were transfected with 1 of 420 different protein kinases, treated with 10 μM KBU2046 (N=5 replicates) or vehicle control (N=5) for three days, and LUMIER assays performed. The N=17 kinases that gave significant findings (Student's t-test <0.05) in the same direction in each of two separate experiments are depicted. Each separate treatment and kinase condition in each of two separate experiments was conducted in replicates of N=5. […] FIGS. 6c and 6d show the results of the wound healing assay. PC3 cells were transfected with siRNA targeting RAF1 (si-Raf1) or non-targeting siRNA (si-control), treated with KBU2046 or vehicle as above, and RAF1 protein measured by Western blot (c) and effects upon wound healing measured (d). […] Purified recombinant HSP90β, CDC37, and RAF1 were combined with KBU2046, as indicated, incubated in an in vitro kinase assay for the indicated times, and Western blot for RAF1-Ser^338 phosphorylation performed. FIGS. 6f and 6g show the effect on HSP90β/CDC37 heterocomplex formation and function in vitro. Purified recombinant HSP90β, CDC37, RAF1, SGK3 or MAP3K6 were combined and treated with KBU2046 or vehicle control, as indicated, incubated in an in vitro kinase assay for the indicated times, and Western blot performed, as denoted. Experiments were repeated at separate times at least once, with similar results. […]
# [2] = tested on: human PCa PC3-M cell orthotopic implants; experiment: Murine orthotopic implantation model of human PCa (lung metastasis); assay type: in vivo, athymic mice; conditions: mice treated as in FIG. 2a
# Experimental: Cohorts of N=12 athymic mice bearing human PCa PC3-M cell orthotopic implants (a), or of N=5 non-tumor bearing athymic mice (b), were treated with KBU2046 incorporated into chow, and resultant lung metastasis (a) or plasma KBU2046 concentration (b) measured. Values are the mean±SEM. The relationship between dose and metastasis was evaluated by two-sided ANOVA (a). FIG. 2c a comprehensive characterization of KBU2046 pharmacokinetics. CD1 mice were dosed with 100 mg KBU2046/kg via oral gavage or intravenous injection (iv), and blood collected at the indicated time points (data from mice dosed at 25 mg/kg are in FIG. 12, and corroborate 100 mg/kg findings). […] The dotted horizontal line denotes a concentration of 24 nM, which was the concentration of KBU2046 measured in the blood of mice whose metastasis were suppressed by 92% (a-b). […]
# Prostate cancer: orthotopic implantation. Orthotopic implantation of human GFP-PC3-M PCa cells into 6-8 week male Balb/c athymic mice (Charles River Laboratories) and quantification of distant metastasis was performed as described (Pavese, J. et al., J Vis Exp, e50873 (2013)). […] Metastasis were scored in a blinded fashion. Specifically, animals were assigned an ID number, resultant histologic slides contained a separate pathological ID number, slides were scored in a random fashion, after which the two numbers were linked up.
# MKK4 = target: T2, MKK4 (Homo sapiens, UniProt P45985, S257E/T261E); experiment: MKK4 in vitro kinase assay; assay type: biochemical; conditions: phosphorylation of kinase dead p38a MAPK
# T2 sequence (P45985 37-399 S257E/T261E): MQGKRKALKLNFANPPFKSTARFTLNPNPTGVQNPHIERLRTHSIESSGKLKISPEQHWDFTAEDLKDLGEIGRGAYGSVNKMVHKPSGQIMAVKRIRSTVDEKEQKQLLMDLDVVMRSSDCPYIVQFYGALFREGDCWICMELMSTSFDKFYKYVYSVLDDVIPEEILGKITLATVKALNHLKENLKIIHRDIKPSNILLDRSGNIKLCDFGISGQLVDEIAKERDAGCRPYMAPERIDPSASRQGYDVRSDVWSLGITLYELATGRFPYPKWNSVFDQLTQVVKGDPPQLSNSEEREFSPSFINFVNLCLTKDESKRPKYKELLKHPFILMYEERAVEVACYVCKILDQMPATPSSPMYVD
# Experimental: FIG. 16a is a depiction of established MKK4 pathway regulating human PCa cell metastasis. […] Values are the mean±SD (of N=2 replicates) increase in melting temperature (ΔTm) of purified recombinant MKK4 induced by the indicated concentrations of KBU2046 or genistein. […] The indicated concentrations of KBU2046 were added to recombinant activated MKK4, and its ability to phosphorylate kinase dead p38a MAPK (K53A) was measured by Western blot for total (p38 MAPK) and phosphorylated (pp38 MAPK) forms of p38 MAPK. […] PC3-M cells were pre-treated for 24 hours with 50 μM KBU2046 or genistein, as indicated, then with TGFβ, and Western blot performed. These findings are from a single experiment, with similar findings in identical separate experiments, repeated at least once.
# In Vitro Kinase Assays. MEK4/MKK4/MAP2K4 in vitro kinase assay was performed as described (Krishna, S. N. et al., PLoS One 8, e81504 (2013)). HSP90β/CDC37 heterocomplex kinase assays with RAF1, SGK3 and MAP3K6 assays incubated indicated proteins in 20 mM MOPS, pH 7.2, 25 mM β-glycerol phosphate, 5 mM EGTA, 1 mM sodium orthovanadate, 1 mM dithiothreitol, 0.25 mM ATP and 37.5 mM MgCl2 at 30° C. for the indicated times.
smiles,measurement,setting,value
"O=C1c2ccccc2OCC1c1ccc(F)cc1 (racemic) [KBU2046, (±)-3(4-fluorophenyl)chroman-4-one]",cell toxicity,NCI 60 cell line panel,minimal-to-no cell toxicity
same,phosphorylation of RAF1 Ser338 activation motif,[1],decreased phosphorylation of RAF1's Ser338 activation motif
same,primary tumor growth (tumor weight),[2],does not inhibit primary tumor cell growth
same,inhibition of MKK4 kinase activity,MKK4,does not inhibit MKK4
